{"source": "patent US20230181696A1", "about": "“POLYPEPTIDE DRUG FOR PREVENTING AND/OR TREATING NEUROBLASTOMA AND USE THEREOF” (ZHUHAI TENGBAI PHARMACEUTICAL CO., LTD., priority 2020, published 2023)", "assay": "Body weight and normal-side kidney weight of tumor-bearing nude mice (toxic side effects)", "conditions": "for Body weight of tumor-bearing nude mice: mean ± SEM; for Body weight, End / Relative body weight, End / Kidney weight on normal side / Body weight, Start / Relative body weight, Start: mean±SEM; for Renal weight/body mass index on normal side / Kidney weight on normal side: left kidney, end of experiment", "note": "Peptide text beside a SMILES is read from it.", "text": "Three days after the surgical modeling, the tumor-bearing mice were imaged with IVIS Spectrum CT in vivo, and the tumor-bearing mice were randomized over groups of 10 mice according to the luminescence intensity in the software analysis results.\nAnimals were observed daily and weighed every other day. Luminescence was detected with four times of in vivo imaging at day 1 (i.e., 3 days after surgical modeling), day 6, day 12 and day 15 from the experimental grouping. The time of in vivo imaging for luminescence detection was adjusted according to the survival and physical condition of the animals. At the end of the experiment (day 16) the animals were executed by neck dislocation, the kidney tissue and tumor masses was isolated for weighing and photographing, and the tumor masses were preserved in 4% formaldehyde solution for routine pathological testing.\nThe statistical analysis between groups was one-way ANOVA and Tukey’s test for pairwise comparison, and the statistical analysis between groups at different time points was two-way ANOVA and Bonferroni test for pairwise comparison."}
{"smiles": "CSCC[C@H](NC(=O)CNC(=O)CNC(=O)[C@H](CO)NC(=O)[C@H](CC(C)C)NC(=O)[C@@H]1CCCN1C(=O)[C@H](CO)NC(=O)[C@H](CC(N)=O)NC(=O)[C@H](CC(C)C)NC(=O)[C@H](C)NC(=O)[C@@H](NC(=O)[C@H](CC(C)C)NC(=O)[C@H](Cc1c[nH]cn1)NC(=O)[C@H](CC(C)C)NC(=O)[C@@H](NC(=O)[C@@H]1CCCN1C(=O)[C@H](CCC(N)=O)NC(=O)[C@H](Cc1ccccc1)NC(=O)[C@H](CC(=O)O)NC(=O)[C@H](CCCNC(=N)N)NC(=O)[C@H](Cc1c[nH]cn1)NC(=O)[C@H](CO)NC(=O)[C@H](Cc1c[nH]cn1)NC(=O)[C@H](CCSC)NC(=O)[C@H](CC(=O)O)NC(=O)CNC(=O)[C@H](CCCNC(=N)N)NC(=O)[C@H](CC(=O)O)NC(=O)CNC(=O)[C@@H](N)CCCNC(=N)N)C(C)C)C(C)C)C(=O)O", "note": "[HYD-PEP06] (H-RGDRGDMHSHRDFQPVLHLVALNSPLSGGM-OH)", "values": [{"measurement": "Body weight of tumor-bearing nude mice", "setting": "5 mg/kg i.v. once a day, Day 1", "result": "20.8 ± 0.6", "unit": "g"}, {"measurement": "Body weight of tumor-bearing nude mice", "setting": "5 mg/kg i.v. once a day, Day 4", "result": "21.8 ± 0.6", "unit": "g"}, {"measurement": "Body weight of tumor-bearing nude mice", "setting": "5 mg/kg i.v. once a day, Day 7", "result": "21.2 ± 0.6", "unit": "g"}, {"measurement": "Body weight of tumor-bearing nude mice", "setting": "5 mg/kg i.v. once a day, Day 10", "result": "20.9 ± 0.5", "unit": "g"}, {"measurement": "Body weight of tumor-bearing nude mice", "setting": "5 mg/kg i.v. once a day, Day 13", "result": "21.1 ± 0.4", "unit": "g"}, {"measurement": "Body weight of tumor-bearing nude mice", "setting": "5 mg/kg i.v. once a day, Day 16", "result": "21.0 ± 0.4", "unit": "g"}, {"measurement": "Body weight, End", "setting": "5 mg/kg i.v. x15", "result": "21.0 ± 0.4", "unit": "g"}, {"measurement": "Relative body weight, End", "setting": "5 mg/kg i.v. x15", "result": "101.6 ± 1.9", "unit": "%"}, {"measurement": "Renal weight/body mass index on normal side", "setting": "5 mg/kg i.v. x15", "result": "0.85+0.01%"}, {"measurement": "Kidney weight on normal side", "setting": "5 mg/kg i.v. x15", "result": "0.178 ± 0.003", "unit": "g"}, {"measurement": "Body weight, Start", "setting": "5 mg/kg i.v. x15", "result": "20.8 ± 0.6", "unit": "g"}, {"measurement": "Relative body weight, Start", "setting": "5 mg/kg i.v. x15", "result": "100.0±0.0", "unit": "%"}, {"measurement": "Body weight of tumor-bearing nude mice", "setting": "10 mg/kg i.v. once a day, Day 1", "result": "20.2 ± 0.4", "unit": "g"}, {"measurement": "Body weight of tumor-bearing nude mice", "setting": "10 mg/kg i.v. once a day, Day 4", "result": "21.9 ± 0.3", "unit": "g"}, {"measurement": "Body weight of tumor-bearing nude mice", "setting": "10 mg/kg i.v. once a day, Day 7", "result": "21.1 ± 0.3", "unit": "g"}, {"measurement": "Body weight of tumor-bearing nude mice", "setting": "10 mg/kg i.v. once a day, Day 10", "result": "21.2 ± 0.3", "unit": "g"}, {"measurement": "Body weight of tumor-bearing nude mice", "setting": "10 mg/kg i.v. once a day, Day 13", "result": "21.3 ± 0.2", "unit": "g"}, {"measurement": "Body weight of tumor-bearing nude mice", "setting": "10 mg/kg i.v. once a day, Day 16", "result": "21.0 ± 0.4", "unit": "g"}, {"measurement": "Body weight, End", "setting": "10 mg/kg i.v. x15", "result": "21.0 ± 0.4", "unit": "g"}, {"measurement": "Relative body weight, End", "setting": "10 mg/kg i.v. x15", "result": "104.0±2.2", "unit": "%"}, {"measurement": "Renal weight/body mass index on normal side", "setting": "10 mg/kg i.v. x15", "result": "0.85±0.02", "unit": "%"}, {"measurement": "Kidney weight on normal side", "setting": "10 mg/kg i.v. x15", "result": "0.178 ± 0.006", "unit": "g"}, {"measurement": "Body weight, Start", "setting": "10 mg/kg i.v. x15", "result": "20.2 ± 0.4", "unit": "g"}, {"measurement": "Relative body weight, Start", "setting": "10 mg/kg i.v. x15", "result": "100.0±0.0", "unit": "%"}, {"measurement": "Body weight of tumor-bearing nude mice", "setting": "20 mg/kg i.v. once a day, Day 1", "result": "20.3 ± 0.4", "unit": "g"}, {"measurement": "Body weight of tumor-bearing nude mice", "setting": "20 mg/kg i.v. once a day, Day 4", "result": "21.6 ± 0.4", "unit": "g"}, {"measurement": "Body weight of tumor-bearing nude mice", "setting": "20 mg/kg i.v. once a day, Day 7", "result": "20.9 ± 0.5", "unit": "g"}, {"measurement": "Body weight of tumor-bearing nude mice", "setting": "20 mg/kg i.v. once a day, Day 10", "result": "20.9 ± 0.5", "unit": "g"}, {"measurement": "Body weight of tumor-bearing nude mice", "setting": "20 mg/kg i.v. once a day, Day 13", "result": "21.3 ± 0.6", "unit": "g"}, {"measurement": "Body weight of tumor-bearing nude mice", "setting": "20 mg/kg i.v. once a day, Day 16", "result": "21.3 ± 0.6", "unit": "g"}, {"measurement": "Body weight, End", "setting": "20 mg/kg i.v. x15", "result": "21.3 ± 0.6", "unit": "g"}, {"measurement": "Relative body weight, End", "setting": "20 mg/kg i.v. x15", "result": "104.9±3.3", "unit": "%"}, {"measurement": "Renal weight/body mass index on normal side", "setting": "20 mg/kg i.v. x15", "result": "0.86+0.01%"}, {"measurement": "Kidney weight on normal side", "setting": "20 mg/kg i.v. x15", "result": "0.182 ± 0.005", "unit": "g"}, {"measurement": "Body weight, Start", "setting": "20 mg/kg i.v. x15", "result": "20.3 ± 0.4", "unit": "g"}, {"measurement": "Relative body weight, Start", "setting": "20 mg/kg i.v. x15", "result": "100.0±0.0", "unit": "%"}, {"measurement": "Kidney weight, kidney weight/body mass index in the normal side (left side) and body weight vs model control group", "setting": "5, 10, 20 mg/kg i.v. x15", "result": "No significant differences"}, {"measurement": "Toxic side effects", "setting": "at the effective dose (5-20 mg/kg i.v. x15)", "result": "did not show significant toxic side effects"}]}
